Results reported in publication PMC5766998, “Determination of the native features of the exoglucanase Cel48S from Clostridium thermocellum” (Biotechnology for Biofuels, 2018).

Biological target: T1, ctCel48S_CD (Acetivibrio thermocellus, UniProt C7ED31)
T1 construct: GH48 catalytic domain, dockerin removed by inserted stop codon; C-terminal Gly5 linker and His12 tag kept; purified from culture supernatant of C. thermocellum DSM1313 (secreted); monomer
Test: reducing sugars released, HPLC
Type: biochemical
Settings: 1% (wt/vol) substrate, 50 mM succinate pH 5.7, 10 mM CaCl2, 55 °C, 5 h

T1 sequence (C7ED31 entry or part of it): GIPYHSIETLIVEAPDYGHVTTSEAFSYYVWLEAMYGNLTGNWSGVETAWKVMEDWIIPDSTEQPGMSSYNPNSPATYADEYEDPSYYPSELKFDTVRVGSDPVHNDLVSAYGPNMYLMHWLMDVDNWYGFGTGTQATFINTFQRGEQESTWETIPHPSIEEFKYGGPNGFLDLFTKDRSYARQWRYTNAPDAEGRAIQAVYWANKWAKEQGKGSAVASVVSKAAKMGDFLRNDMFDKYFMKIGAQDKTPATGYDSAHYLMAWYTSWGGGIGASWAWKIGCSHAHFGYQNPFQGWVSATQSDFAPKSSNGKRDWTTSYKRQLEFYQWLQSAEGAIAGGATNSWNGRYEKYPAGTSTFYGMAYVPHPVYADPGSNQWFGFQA

SMILES	reducing sugars released, HPLC
OC[C@H]1O[C@@H](O[C@H]2[C@H](O)[C@@H](O)[C@H](O[C@H]3[C@H](O)[C@@H](O)[C@H](O[C@H]4[C@H](O)[C@@H](O)C(O)O[C@@H]4CO)O[C@@H]3CO)O[C@@H]2CO)[C@H](O)[C@@H](O)[C@@H]1O (some centres unmarked) [cellotetrose]	ctCel48S_CD could also hydrolyze cellopentose and cellotetrose
OC[C@H]1O[C@@H](O[C@H]2[C@H](O)[C@@H](O)[C@H](O[C@H]3[C@H](O)[C@@H](O)[C@H](O[C@H]4[C@H](O)[C@@H](O)[C@H](O[C@H]5[C@H](O)[C@@H](O)C(O)O[C@@H]5CO)O[C@@H]4CO)O[C@@H]3CO)O[C@@H]2CO)[C@H](O)[C@@H](O)[C@@H]1O (some centres unmarked) [cellopentose]	ctCel48S_CD could also hydrolyze cellopentose and cellotetrose
